Values of other authors as cited in US20210040357A1, “ELECTROCONDUCTIVE ADHESIVE COMPOSITION, CURED PRODUCT OF ELECTROCONDUCTIVE ADHESIVE, AND ELECTRONIC DEVICE” (TANAKA KIKINZOKU KOGYO K.K., priority 2018, published 2021).

For `CC(C)C1=CC2=CC[C@@H]3[C@](C)(CCC[C@@]3(C)C(=O)O)[C@H]2CC1` [Abietic acid], the “Acid dissociation constant pKa” value is given as 4.64.
In the case of `CCCCCCCCCCCCCCCCCC(=O)O` [Stearic acid], the “Acid dissociation constant pKa” value is given as “about 5.0”.
In the case of `CCCCCCCC/C=C\CCCCCCCC(=O)O` [oleic acid], the “Acid dissociation constant pKa” value is listed as “about 5.0”.
